The record followed here is US20250099411A1, “Methods of Treatment of Inflammation Related Conditions Using Pluripotent Anti-Inflammatory and Metabolic Modulators” (Institut Pasteur de Montevideo, priority 2018, published 2025).

For experiment [1], the system named is Nrf2/Keap I-dependent gene expression. Description: Nrf2/Keap I-dependent phase two enzyme gene expression (HO-I, GCLM, NQO I qPCR) in Hep G2 cells. The class given is cell-based. The note with it: Hep G2, five hours, SANA 0.1 mM, Salicylic Acid 0.2 and 5 mM. As for the experimental part: FIGS. 6 and 7 show induction of phase two enzymes Nrf2/Keap I-dependent gene expression by SANA but not by SA Hep G2 cells were treated with SANA (0.1 mM) or Salicylic Acid (0.2 and 5 mM) for five hours. mRNA was extracted from the cells and was measured HO-I, GCLM and NQO I gene expression by qPCR.

The test system of the next experiment is inflammasome. As to the kind of experiment: Inflammasome inhibition (IL-lb ELISA) in THP-1 cells differentiated into macrophages, LPS then ATP. It counts as cell-based, human. The note with it: for inhibition of the inflammasome (IL-lb), applied with the second signal: together with ATP (5 mM, 45 minutes) after LPS, SANA 0.05-0.25 mM, SA 0.25 mM; for inhibition of the inflammasome (IL-lb), applied with the first signal: together with LPS (250 ng/ml, 3 hs.), then ATP 5 mM 45 minutes, SANA 0.05-0.25, SA 0.25 mM. How it is done: In FIGS. 8 and 9 show the inhibition of inflammasome in THP-1 cells differentiated into macrophages (PMA 200 nM, 48 hs.) by SANA but not by SA when applied together with the first (FIG. 8) or the second (FIG. 9) signal. In FIG. 8 cells were treated with Salicylic acid (0.25 mM) or SANA (0.05; 0.125 and 0.25) together with LPS stimulation. The cells were stimulated with LPS (250 ng/ml, 3 hs.) and then with ATP (5 mM, 45 minutes). Supernatant was collected and IL-lb measured by ELISA Cell viability was assessed by MTT assay. […] In FIG. 9 THP-1 cells were differentiated into macrophages with PMA (200 nM, 48 hs.). Cells were stimulated with LPS (250 ng/ml, 3 hs.) and then with ATP (5 mM, 45 minutes). Together with ATP treatment, cells were then treated with NAT×ME (10 uM), Salicylic acid (0.25 mM) or SANA (0.05; 0.125 and 0.25 mM). Supernatant was collected and IL-lb secretion was measured by ELISA Cell viability was assessed by the MTT assay.

Experiment [2] can be described thus: Thermogenesis / body temperature of mice on HFD. The class given is in vivo. An excerpt: (§1) While not wishing to be bound by theory, thermogenesis and weight loss are a result of AMPK activation together with white adipose tissue and mitochondrial uncoupling. […] SANA's beneficial effects also include reducing adverse effects related to obesity. […] FIGS. 22 and 23, compare the body temperatures of mice on normal diets (“ND”), HFD, and HFD with administration of SANA.

Experiment [3] in a line: Stopped-flow kinetics of the reaction with BME. The class given is physicochemical. The following applies: 25° C., triplicate, BME 0.54-2.73 mM, absorbance at 260 nm. As for the experimental part: In FIG. 2, it is shown that the reaction between SANA and BME was determined to be a second order rate constant. Stopped-flow kinetic measurements were performed using an Rx 2000 stopped flow analyzer (Applied Photophysics). Mixtures of 150 μL NATx0 (25 μM) and solutions of BME at 0.54 mM, 1.09 mM, 1.64 mM, 2.18 mM, and 2.73 mM concentrations.
The reaction was monitored by following the absorbance at 260 nm and plots were fitted to a simple exponential decay function using Originlab software (version 8.0.). The observed pseudo first order constant at each concentration of BME was extracted from the equation and plotted against the concentration of BME. The second rate constant of the reaction is derived from the slope of the curve and was 182±6 M·^1s·^1. All experiments were carried out at 25° C. by triplicate.

The test system of the next experiment is 11-lb secretion. Description: LPS-induced 11-lb secretion into the peritoneum in vivo.
A short description of experiment [4]: Body weight of mice fed a high-fat diet. It counts as in vivo.
Source text: as §1

The nature of experiment [5]: Skin allograft rejection, male tail skin grafted onto female mice. It counts as in vivo, C57BL/6 mice. The note with it: 100 mg/kg oral gavage daily, day -1 to day 15. As for the experimental part:
C57BL/6 female mice were grafted with skin from the tails of C57BL/6 male mice. The skin graft is a small'square (1 cm^2 and it was implanted onto the left subscapular region of the female mice. From one day before the transplantation until 15 days after it, the mice were treated daily with SANA (100 mg/kg, by oral gavage; SANA group) or vehicle (Control group). The vehicle used was a solution of Carboxy-Methyl-cellulose 0.5% m/v and Tween 80 0.5% v/v. At the end of the 15th day of administration, allografts were checked every 48/72 hours to assess the condition of the grafted skin. Rejection was diagnosed clinically when the allograft lost more than 50% of its size and/or more than I 0% of allograft was necrotic.
The study followed the protocol described above for FIG. I, but further included a Salicylate group. C57BL/6 female mice were grafted with skin from the tails of C57BL/6 male mice. The skin graft is a small square (1 cm^2 and it was implanted onto the left subscapular region of the female mice. From one day before the transplantation until 15 days after it, the mice were treated daily with Salicylate (100 mg/kg, by oral gavage; Salicylate group), SANA (100 mg/kg, by oral gavage; SANA group) or vehicle (Control group). The vehicle used was a solution of
Carboxy-Methyl-cellulose 0.5% m/v and Tween 80 0.5% v/v. […]

The target in the next experiment is GAPDH (Homo sapiens, UniProt P04406). As to the kind of experiment: GAPDH activity. It counts as biochemical.
Chain of GAPDH (P04406 whole entry, species assumed): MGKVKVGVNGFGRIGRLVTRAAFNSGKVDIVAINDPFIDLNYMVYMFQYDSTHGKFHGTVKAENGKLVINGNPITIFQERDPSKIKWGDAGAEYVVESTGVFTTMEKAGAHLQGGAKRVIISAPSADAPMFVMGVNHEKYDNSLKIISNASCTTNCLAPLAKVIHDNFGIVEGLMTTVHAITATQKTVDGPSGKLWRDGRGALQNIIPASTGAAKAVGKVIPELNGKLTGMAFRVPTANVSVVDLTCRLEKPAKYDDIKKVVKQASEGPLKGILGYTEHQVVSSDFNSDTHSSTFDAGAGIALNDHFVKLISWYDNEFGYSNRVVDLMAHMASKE
Experiment [6] in a line: Magnetic resonance imaging (MRI) of fat content. The note with it: mice. It counts as in vivo.
Source text: as §1

The nature of experiment [7]: Glucose tolerance test in HFD obese mice. The following applies: mice under HFD up to 7 months, 100 mg/kg gavage every day during four weeks. The class given is in vivo. How it is done:
Mice under HFD for up to 7 months (mean weight around 40 gr.) were treated with SANA (100 mg/kg; gavage) or phosphate buffer (control) every day during four weeks. The glucose tolerance test were run as per well-known standard procedures.

Experiment [8] in a line: Thermogenesis and weight loss in mice on a normal diet. The class given is in vivo.
Source text: as §1

In the case of `O=C(O)c1ccccc1O` [SA, salicylic acid, reference compound], in experiment [1], the “induction of phase two enzymes Nrf2/Keap I-dependent gene expression” value was “not by SA”. Moreover, in the experiment with inflammasome, the “inhibition of the inflammasome (IL-lb), applied with the second signal” value is recorded as “cannot inhibit” and the “inhibition of the inflammasome (IL-lb), applied with the first signal” value was “cannot inhibit”.
As to `O=C(O)c1cc(/C=C/[N+](=O)[O-])ccc1O` [SANA, 2-hydroxy-5-(2-nitroethenyl)benzoic acid], in experiment [1], the “induction of phase two enzymes Nrf2/Keap I-dependent gene expression” value is reported as “induction”. The body temperature result in experiment [2] (HFD with SANA versus ND mice and HFD mice) was “higher body temperatures than that of ND mice and HFD mice”. Moreover, the thermogenesis result in experiment [2] (mouse, in vivo) is listed as “inducing thermogenesis”. In [3], the “second rate constant of the reaction with BME” value is recorded as 182±6 M·^1s·^1. Moreover, the “LPS-induced 11-lb secretion into the peritoneum” value with 11-lb secretion is reported as “decreases”. Moreover, in experiment [4] (mice fed high-fat diet, 29 weeks), the “rate of weight gain” value is “reduced the rate of weight gain”. For the same compound, the “dose dependence of the effect on obesity” value in experiment [4] (mouse, in vivo) is “dose response effect”. For the same compound, in experiment [5], the “skin allograft rejection compared to salicylic acid” value is recorded as “significant reduction in skin allograft rejection” and the “survival of grafted skin versus control group” value was “prolonged survival of grafted skin”. Moreover, the GAPDH activity entry at GAPDH is reported as “does not inhibit”. Moreover, in the experiment on inflammasome, the “inhibition of the inflammasome (IL-lb), applied with the second signal” value is recorded as “potent inhibitor” and the “inhibition of the inflammasome (IL-lb), applied with the first signal” value is on record as “potent inhibitor”. Moreover, the “fat content (MRI)” value in experiment [6] is recorded as “induces loss of fat content”. Besides, the “insulin resistance (glucose tolerance test)” value in experiment [7] is “reverses insulin resistance”. Moreover, in experiment [8], the thermogenesis result is “does not induce” and the weight loss entry is reported as “does not induce”.
